What was measured:
[1] = Acute toxicity (LD50) by mice; settings: mouse, in vivo, ip
[2] = system: murine tumor cell line L 929; test: Cytotoxic activity against L 929 (growth observed with inverted microscope, 4 days); format: cell-based; settings: for Growth: 4 days;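 as to growth: + means growth and ± means marked inhibition and - means cell death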
Description: The B16 subline of high pulmonary metastatic potential and murine tumor cell line L 929 were cultured in DME medium supplemented with 10% bovine fetal serum at 37° C. in the presence of 5% CO2.
The B16 subline of high pulmanary metastatic potential and murine tumor cell line L 929 were cultured in DME medium supplemented with 10% bovine fetal serum at 37° C. in the presence of 5% CO2.

[3] = system: B16 subline of high pulmonary metastatic potential; test: Inhibition of pulmonary metastasis of B16 subline pretreated with compound and injected i.v. into BDF1 mice; format: in vivo, murine; mouse BDF1; settings: for Pulmonary Metastasis, Mouse 1 / Pulmonary Metastasis, Mouse 2 / Pulmonary Metastasis, Mouse 3 / Pulmonary Metastasis (Mean ± Standard Deviation): 14 days; for Pulmonary Metastasis (Mean ± Standard Deviation): None 32 ± 3.0; for Pulmonary Metastasis, %: None = 100

OC[C@@H]1[C@@H](O)[C@H](O)[C@@H](O)CN1CCCc1ccccc1 [N-(3-Phenylpropyl)-1-deoxynojirimycin, N-(3-phenylpropyl)-1-deoxynojirimycin]
LD50 [1]: > 500 mg/kg | Cytotoxicity (in words) ([2]; L 929, even at a concentration as high as 100 μg/ml): did not show marked cytotoxicity | Growth ([2]; Table 2, L 929, 0.5 μg/ml): + | Growth ([2]; Table 2, L 929, 5 μg/ml): + | Growth ([2]; Table 2, L 929, 50 μg/ml): + | Growth ([2]; Table 2, L 929, 100 μg/ml): + | Inhibition of metastasis to the lungs (in words) ([3]; B16 subline, BDF1 mice): shows decrease in the number of colonies | Pulmonary Metastasis, Mouse 1 ([3]; Table 3, 30 μg/ml): 9 no. | Pulmonary Metastasis, Mouse 2 ([3]; Table 3, 30 μg/ml): 22 no. | Pulmonary Metastasis, Mouse 3 ([3]; Table 3, 30 μg/ml): 37 no. | Pulmonary Metastasis (Mean ± Standard Deviation) ([3]; Table 3, 30 μg/ml): 22.7 ± 14.0 no. | Pulmonary Metastasis, % ([3]; Table 3, 30 μg/ml): 68.8% | Pulmonary Metastasis, Mouse 1 ([3]; Table 3, 100 μg/ml): 4 no. | Pulmonary Metastasis, Mouse 2 ([3]; Table 3, 100 μg/ml): 4 no. | Pulmonary Metastasis, Mouse 3 ([3]; Table 3, 100 μg/ml): 6 no. | Pulmonary Metastasis (Mean ± Standard Deviation) ([3]; Table 3, 100 μg/ml): 4.7 ± 1.2 no. | Pulmonary Metastasis, % ([3]; Table 3, 100 μg/ml): 14.7% | Pulmonary Metastasis, Mouse 1 ([3]; Table 3, 300 μg/ml): 0 no. | Pulmonary Metastasis, Mouse 2 ([3]; Table 3, 300 μg/ml): 0 no. | Pulmonary Metastasis, Mouse 3 ([3]; Table 3, 300 μg/ml): 3 no. | Pulmonary Metastasis (Mean ± Standard Deviation) ([3]; Table 3, 300 μg/ml): 1 ± 1.7 no. | Pulmonary Metastasis, % ([3]; Table 3, 300 μg/ml): 3.1%
